Assay results taken from PubChem BioAssay AID338 (DTP/NCI, 2004).
Values joined by “and” are separate entries in the source; they are usually repeats but may differ in a detail not shown here. Identical values can stand only once. Toxic doses and inconclusive results are not listed. *1 amine or outer side, *2 acyl side, *3 side chain or, on linkers, in order; H or OH if unused. Where a SMILES comes first, the peptide text is derived from it. Bridges are numbered along the chain shown (N, C = ends). Roman numbers before positions name the chains, in order. [ ]: non-standard residue; d: D form. Actinocin(9to1) = Cc1c2oc3c(C)ccc(C(=O)[*:1])c3nc-2c(C(=O)[*:2])c(N)c1=O; aThr = C[C@H](O)[C@H](N)C(=O)O; NMeV = CN[C@H](C(=O)O)C(C)C; Sar = CNCC(=O)O

Test system: BDF1 mice, P388 leukemia (terephthalanilide-resistant), survival T/C
Assay: NCI In Vivo Anticancer Drug Screen. Data for tumor model P388 Leukemia resistant to A Terephthalanilide; NSC 38280 (intraperitoneal) in B6D2F1 (BDF1) mice
Settings: endpoint: median survival time, higher = longer survival
Method: The antitumor activity of compounds was measured in mice bearing transplantable tumors. Survival or tumor size were measured and the results are expressed as the measurement made in the treated group (T) divided by the measurement made in the vehicle treated control group (C). The tumor model used in this assay is P388 Leukemia resistant to A Terephthalanilide; NSC 38280 (intraperitoneal) in B6D2F1 (BDF1) mice

[1] = dose: 250.0 mg/kg/injection, schedule: Q01DX010 (ip), vehicle: saline
[2] = dose: 8.0 mg/kg/injection, schedule: Q01DX010 (ip), vehicle: saline

Compound: O=C1CCC(N2C(=O)c3ccccc3C2=O)C(=O)N1 (stereo not given)
- T/C (dose: 31.3 mg/kg/injection, schedule: Q01DX010 (ip), vehicle: saline): 117 % of control
- T/C (dose: 62.5 mg/kg/injection, schedule: Q01DX010 (ip), vehicle: saline): 100 % of control and 117 % of control
- T/C (dose: 125.0 mg/kg/injection, schedule: Q01DX010 (ip), vehicle: saline): 100 % of control and 105 % of control
- T/C [1]: 90 % of control and 94 % of control

Compound: C[C@@H]1C[C@@H]([C@H](O)CC2CC(=O)NC(=O)C2)C(=O)[C@@H](C)C1
- T/C (dose: 5.0 mg/kg/injection, schedule: Q01DX010 (ip), vehicle: saline): 93 % of control and 100 % of control
- T/C (dose: 10.0 mg/kg/injection, schedule: Q01DX010 (ip), vehicle: saline): 100 % of control
- T/C (dose: 20.0 mg/kg/injection, schedule: Q01DX010 (ip), vehicle: saline): 100 % of control
- T/C (dose: 40.0 mg/kg/injection, schedule: Q01DX010 (ip), vehicle: saline): 112 % of control

Compound: O=C(Nc1ccc(C2=NCCN2)cc1)c1ccc(C(=O)Nc2ccc(C3=NCCN3)cc2)c([N+](=O)[O-])c1
- T/C (dose: 6.0 mg/kg/injection, schedule: Q01DX010 (ip), vehicle: saline): 110 % of control and 122 % of control
- T/C [2]: 110 % of control and 122 % of control
- T/C (dose: 12.0 mg/kg/injection, schedule: Q01DX010 (ip), vehicle: saline): 122 % of control
- T/C (dose: 18.0 mg/kg/injection, schedule: Q01DX010 (ip), vehicle: saline): 88 % of control and 105 % of control

Compound: c1ccc(CNc2ncnc3[nH]ncc23)cc1
- T/C [2]: 90 % of control
- T/C (dose: 16.0 mg/kg/injection, schedule: Q01DX010 (ip), vehicle: saline): 90 % of control and 95 % of control
- T/C (dose: 32.0 mg/kg/injection, schedule: Q01DX010 (ip), vehicle: saline): 90 % of control and 100 % of control
- T/C (dose: 64.0 mg/kg/injection, schedule: Q01DX010 (ip), vehicle: saline): 90 % of control and 105 % of control

Compound: Cc1c2oc3c(C)ccc(C(=O)N[C@@H]4C(=O)N[C@H](C(C)C)C(=O)N5CCC[C@H]5C(=O)N(C)CC(=O)N(C)[C@@H](C(C)C)C(=O)O[C@H]4C)c3nc-2c(C(=O)N[C@@H]2C(=O)N[C@H](C(C)C)C(=O)N3CCC[C@H]3C(=O)N(C)CC(=O)N(C)[C@@H](C(C)C)C(=O)O[C@H]2C)c(N)c1=O (I: [aThr][dV]P[Sar][NMeV] / II: [aThr][dV]P[Sar][NMeV]; ester I:1-I:C, II:1-II:C; linker I:N-II:N via Actinocin(9to1))
- T/C (dose: 12.5 micrograms/kg/injection, schedule: Q01DX010 (ip), vehicle: other): 111 % of control and 120 % of control
- T/C (dose: 25.0 micrograms/kg/injection, schedule: Q01DX010 (ip), vehicle: other): 116 % of control and 120 % of control
- T/C (dose: 50.0 micrograms/kg/injection, schedule: Q01DX010 (ip), vehicle: other): 120 % of control and 122 % of control
- T/C (dose: 100.0 micrograms/kg/injection, schedule: Q01DX010 (ip), vehicle: other): 115 % of control and 122 % of control

Compound: O=C(Nc1ccc(NC2=NCCN2)cc1)c1ccc(C(=O)Nc2ccc(NC3=NCCN3)cc2)cc1
- T/C (dose: 2.0 mg/kg/injection, schedule: Q01DX010 (ip), vehicle: saline): 100 % of control and 106 % of control
- T/C (dose: 4.0 mg/kg/injection, schedule: Q01DX010 (ip), vehicle: saline): 150 % of control
- T/C [2]: 181 % of control

Compound: S=c1nc[nH]c2nc[nH]c12
- T/C (dose: 5.0 mg/kg/injection, schedule: Q01DX010 (ip), vehicle: alkali diluted with saline): 105 % of control
- T/C (dose: 5.0 mg/kg/injection, schedule: Q01DX Z (ip), vehicle: saline): 100 % of control
- T/C (dose: 10.0 mg/kg/injection, schedule: Q01DX010 (ip), vehicle: alkali diluted with saline): 88 % of control
- T/C (dose: 10.0 mg/kg/injection, schedule: Q01DX Z (ip), vehicle: saline): 100 % of control and 104 % of control
- T/C (dose: 20.0 mg/kg/injection, schedule: Q01DX010 (ip), vehicle: alkali diluted with saline): 100 % of control
- T/C (dose: 20.0 mg/kg/injection, schedule: Q01DX Z (ip), vehicle: saline): 100 % of control and 109 % of control
- T/C (dose: 40.0 mg/kg/injection, schedule: Q01DX010 (ip), vehicle: alkali diluted with saline): 94 % of control
- T/C (dose: 40.0 mg/kg/injection, schedule: Q01DX Z (ip), vehicle: saline): 122 % of control
- T/C (dose: 80.0 mg/kg/injection, schedule: Q01DX Z (ip), vehicle: saline): 154 % of control

Compound: O=C(Nc1ccc(C2=NCCN2)cc1)c1cc(Cl)cc(C(=O)Nc2ccc(C3=NCCN3)cc2)c1
- T/C (dose: 140.0 mg/kg/injection, schedule: Q01DX010 (ip), vehicle: saline): 100 % of control
- T/C (dose: 210.0 mg/kg/injection, schedule: Q01DX010 (ip), vehicle: saline): 100 % of control
- T/C (dose: 315.0 mg/kg/injection, schedule: Q01DX010 (ip), vehicle: saline): 100 % of control
- T/C (dose: 473.0 mg/kg/injection, schedule: Q01DX010 (ip), vehicle: saline): 94 % of control

Compound: O=C(Nc1ccc(C2=NCCN2)cc1)c1cc(C(=O)Nc2ccc(C3=NCCN3)cc2)cc([N+](=O)[O-])c1
- T/C (dose: 167.0 mg/kg/injection, schedule: Q01DX010 (ip), vehicle: saline): 94 % of control
- T/C [1]: 100 % of control
- T/C (dose: 375.0 mg/kg/injection, schedule: Q01DX010 (ip), vehicle: saline): 94 % of control
- T/C (dose: 512.0 mg/kg/injection, schedule: Q01DX010 (ip), vehicle: saline): 94 % of control

Compound: O=C(O)CCCc1ccc(N(CCCl)CCCl)cc1
- T/C (dose: 3.13 mg/kg/injection, schedule: Q01DX010 (ip), vehicle: saline): 100 % of control and 105 % of control
- T/C (dose: 6.25 mg/kg/injection, schedule: Q01DX010 (ip), vehicle: saline): 110 % of control and 116 % of control
- T/C (dose: 12.5 mg/kg/injection, schedule: Q01DX010 (ip), vehicle: saline): 105 % of control and 120 % of control

Compound: COc1cc(-c2ccc(Nc3ccccc3C(=O)O)c(OC)c2)ccc1Nc1ccccc1C(=O)O
- T/C (dose: 67.0 mg/kg/injection, schedule: Q01DX010 (ip), vehicle: saline): 159 % of control
- T/C (dose: 100.0 mg/kg/injection, schedule: Q01DX010 (ip), vehicle: saline): 159 % of control
